Data taken from ChEMBL document CHEMBL5370683, “Peptide-to-Small Molecule: Discovery of Non-Covalent, Active-Site Inhibitors of β-Herpesvirus Proteases” (ACS Med Chem Lett, 2023).
Peptide text beside a SMILES is read from it.

Assays:
[1] = Cytotoxicity against HFF cells assessed as inhibition in cell viability incubated for 5 days by luminescence based analysis; format: toxicity; details: human, time 5 day
[2] = Inhibition of N-terminal 6 His-tagged HHV6 protease (2 to 230 residues) expressed in Escherichia coli BL21 cells using 5FAM-KPSILNASLTPETVKK as peptide substrate incubated for 3 hrs by fluorescence based analysis; design: species or system Human betaherpesvirus 6
[3] = test system: Human betaherpesvirus 5; assay: Antiviral activity against HCMV infected in HFF cells assessed as reduction in viral replication; format: functional, organism-based; details: Human betaherpesvirus 5, HFF
[4] = Inhibition of amino terminal GST tagged HCMV protease (1 to 256 residues) expressed in Escherichia coli BL21 (DE3) cells using 5-carboxyfluorescein [FAM]-RGVVNASSRLAK as peptide substrate incubated for 3 hrs by fluorescence based analysis; design: species or system Human betaherpesvirus 5
[5] = test system: Human betaherpesvirus 5; assay: Inhibition of amino terminal GST tagged HCMV protease (1 to 256 residues) expressed in Escherichia coli BL21 (DE3) cells using 5-carboxyfluorescein [FAM]-RGVVNASSRLAK as peptide substrate at 99 uM incubated for 3 hrs by fluorescence based analysis relative to control
[6] = test system: Human betaherpesvirus 6; assay: Inhibition of N-terminal 6 His-tagged HHV6 protease (2 to 230 residues) expressed in Escherichia coli BL21 cells using 5FAM-KPSILNASLTPETVKK as peptide substrate at 99 uM incubated for 3 hrs by fluorescence based analysis relative to control
[7] = Inhibition of amino terminal GST tagged HCMV protease F1A mutant (1 to 256 residues) expressed in Escherichia coli BL21 (DE3) cells using 5-carboxyfluorescein [FAM]-RGVVNASSRLAK as peptide substrate incubated for 3 hrs by fluorescence based analysis; design: species or system Human betaherpesvirus 5
[8] = Inhibition of N-terminal 6 His-tagged HHV6 protease F1A mutant (2 to 230 residues) expressed in Escherichia coli BL21 cells using 5FAM-KPSILNASLTPETVKK as peptide substrate incubated for 3 hrs by fluorescence based analysis; design: species or system Human betaherpesvirus 6
[9] = Inhibition of N-terminal 6 His-tagged HHV6 protease […] mutant (2 to 230 residues) expressed in Escherichia coli BL21 cells using 5FAM-KPSILNASLTPETVKK as peptide substrate incubated for 3 hrs by fluorescence based analysis; design: species or system Human betaherpesvirus 6
[10] = Inhibition of amino terminal GST tagged HCMV protease I2A mutant (1 to 256 residues) expressed in Escherichia coli BL21 (DE3) cells using 5-carboxyfluorescein [FAM]-RGVVNASSRLAK as peptide substrate incubated for 3 hrs by fluorescence based analysis; design: species or system Human betaherpesvirus 5
[11] = Inhibition of N-terminal 6 His-tagged HHV6 protease T3A mutant (2 to 230 residues) expressed in Escherichia coli BL21 cells using 5FAM-KPSILNASLTPETVKK as peptide substrate incubated for 3 hrs by fluorescence based analysis; design: species or system Human betaherpesvirus 6
[12] = Inhibition of amino terminal GST tagged HCMV protease T3A mutant (1 to 256 residues) expressed in Escherichia coli BL21 (DE3) cells using 5-carboxyfluorescein [FAM]-RGVVNASSRLAK as peptide substrate incubated for 3 hrs by fluorescence based analysis; design: species or system Human betaherpesvirus 5
[13] = Inhibition of N-terminal 6 His-tagged HHV6 protease H5A mutant (2 to 230 residues) expressed in Escherichia coli BL21 cells using 5FAM-KPSILNASLTPETVKK as peptide substrate incubated for 3 hrs by fluorescence based analysis; design: species or system Human betaherpesvirus 6
[14] = Inhibition of amino terminal GST tagged HCMV protease H5A mutant (1 to 256 residues) expressed in Escherichia coli BL21 (DE3) cells using 5-carboxyfluorescein [FAM]-RGVVNASSRLAK as peptide substrate incubated for 3 hrs by fluorescence based analysis; design: species or system Human betaherpesvirus 5
[15] = Inhibition of amino terminal GST tagged HCMV protease Y6A mutant (1 to 256 residues) expressed in Escherichia coli BL21 (DE3) cells using 5-carboxyfluorescein [FAM]-RGVVNASSRLAK as peptide substrate incubated for 3 hrs by fluorescence based analysis; design: species or system Human betaherpesvirus 5
[16] = Inhibition of N-terminal 6 His-tagged HHV6 protease Y6A mutant (2 to 230 residues) expressed in Escherichia coli BL21 cells using 5FAM-KPSILNASLTPETVKK as peptide substrate incubated for 3 hrs by fluorescence based analysis; design: species or system Human betaherpesvirus 6
[17] = Inhibition of N-terminal 6 His-tagged HHV6 protease W7A mutant (2 to 230 residues) expressed in Escherichia coli BL21 cells using 5FAM-KPSILNASLTPETVKK as peptide substrate incubated for 3 hrs by fluorescence based analysis; design: species or system Human betaherpesvirus 6
[18] = Inhibition of amino terminal GST tagged HCMV protease W7A mutant (1 to 256 residues) expressed in Escherichia coli BL21 (DE3) cells using 5-carboxyfluorescein [FAM]-RGVVNASSRLAK as peptide substrate incubated for 3 hrs by fluorescence based analysis; design: species or system Human betaherpesvirus 5
[19] = Inhibition of amino terminal GST tagged HCMV protease V8A mutant (1 to 256 residues) expressed in Escherichia coli BL21 (DE3) cells using 5-carboxyfluorescein [FAM]-RGVVNASSRLAK as peptide substrate incubated for 3 hrs by fluorescence based analysis; design: species or system Human betaherpesvirus 5
[20] = Inhibition of N-terminal 6 His-tagged HHV6 protease V8A mutant (2 to 230 residues) expressed in Escherichia coli BL21 cells using 5FAM-KPSILNASLTPETVKK as peptide substrate incubated for 3 hrs by fluorescence based analysis; design: species or system Human betaherpesvirus 6
[21] = Inhibition of N-terminal 6 His-tagged HHV6 protease R9A mutant (2 to 230 residues) expressed in Escherichia coli BL21 cells using 5FAM-KPSILNASLTPETVKK as peptide substrate incubated for 3 hrs by fluorescence based analysis; design: species or system Human betaherpesvirus 6
[22] = Inhibition of amino terminal GST tagged HCMV protease R9A mutant (1 to 256 residues) expressed in Escherichia coli BL21 (DE3) cells using 5-carboxyfluorescein [FAM]-RGVVNASSRLAK as peptide substrate incubated for 3 hrs by fluorescence based analysis; design: species or system Human betaherpesvirus 5

CN1C(=O)N(c2cccn([C@@H](c3ccccc3)c3cn(C4CCCC4)nc3-c3ccccc3)c2=O)C[C@@H]1C(=O)NC12CCC(CC1)NC2=O
CC50 at 120 h [1]: > 25 µM | IC50 [2]: 11 µM | EC50 [3]: > 25 µM | IC50 [4]: 9.8 µM

CN1C(=O)N(c2cccn([C@@H](c3ccccc3)c3cn(C4CCCC4)nc3-c3ccccc3)c2=O)C[C@@H]1C(=O)Nc1ccc[nH]c1=O
CC50 at 120 h [1]: 53 µM | IC50 [2]: 18 µM | inhibition [5]: 32% | EC50 [3]: 38 µM | IC50 [4]: > 99 µM

CN1C(=O)N(c2cccn([C@H](c3ccccc3)c3cn(C4CCCC4)nc3-c3ccccc3)c2=O)C[C@@H]1C(=O)Nc1ccc[nH]c1=O
CC50 at 120 h [1]: 89 µM | IC50 [2]: > 99 µM | inhibition [5]: 2% | EC50 [3]: 90 µM | inhibition [6]: 12% | IC50 [4]: > 99 µM

Cc1ccc([C@H](c2cn(C3CCCC3)nc2-c2ccccc2C)n2cccc(N3C[C@H](C(=O)NC45CCC(CC4)NC5=O)N(C)C3=O)c2=O)cc1
IC50 [2]: 50 µM | inhibition [5]: 39% | IC50 [4]: > 99 µM

CC[C@H](C)[C@H](NC(=O)[C@H](C)NC(C)=O)C(=O)N[C@H](C(=O)NCC(=O)N[C@@H](Cc1c[nH]cn1)C(=O)N[C@@H](Cc1ccc(O)cc1)C(=O)N[C@@H](Cc1c[nH]c2ccccc12)C(=O)N[C@H](C(=O)N[C@@H](CCCNC(=N)N)C(=O)N[C@@H](Cc1ccccc1)C(=O)N[C@@H](CC(C)C)C(=O)N1CCC[C@H]1C(=O)N[C@@H](CS)C(=O)NCC(N)=O)C(C)C)[C@@H](C)O (Ac-AITGHYWVRFLPCG-NH2)
IC50 [7]: 0.079 µM | IC50 [8]: 0.14 µM

CC(=O)N[C@@H](Cc1ccccc1)C(=O)N[C@@H](C)C(=O)N[C@H](C(=O)NCC(=O)N[C@@H](Cc1c[nH]cn1)C(=O)N[C@@H](Cc1ccc(O)cc1)C(=O)N[C@@H](Cc1c[nH]c2ccccc12)C(=O)N[C@H](C(=O)N[C@@H](CCCNC(=N)N)C(=O)N[C@@H](Cc1ccccc1)C(=O)N[C@@H](CC(C)C)C(=O)N1CCC[C@H]1C(=O)N[C@@H](CS)C(=O)NCC(N)=O)C(C)C)[C@@H](C)O (Ac-FATGHYWVRFLPCG-NH2)
IC50 [9]: < 0.076 µM | IC50 [10]: 0.184 µM

CC[C@H](C)[C@H](NC(=O)[C@H](Cc1ccccc1)NC(C)=O)C(=O)N[C@@H](C)C(=O)NCC(=O)N[C@@H](Cc1c[nH]cn1)C(=O)N[C@@H](Cc1ccc(O)cc1)C(=O)N[C@@H](Cc1c[nH]c2ccccc12)C(=O)N[C@H](C(=O)N[C@@H](CCCNC(=N)N)C(=O)N[C@@H](Cc1ccccc1)C(=O)N[C@@H](CC(C)C)C(=O)N1CCC[C@H]1C(=O)N[C@@H](CS)C(=O)NCC(N)=O)C(C)C (Ac-FIAGHYWVRFLPCG-NH2)
IC50 [11]: 0.1 µM | IC50 [12]: 0.157 µM

CC[C@H](C)[C@H](NC(=O)[C@H](Cc1ccccc1)NC(C)=O)C(=O)N[C@H](C(=O)NCC(=O)N[C@@H](C)C(=O)N[C@@H](Cc1ccc(O)cc1)C(=O)N[C@@H](Cc1c[nH]c2ccccc12)C(=O)N[C@H](C(=O)N[C@@H](CCCNC(=N)N)C(=O)N[C@@H](Cc1ccccc1)C(=O)N[C@@H](CC(C)C)C(=O)N1CCC[C@H]1C(=O)N[C@@H](CS)C(=O)NCC(N)=O)C(C)C)[C@@H](C)O (Ac-FITGAYWVRFLPCG-NH2)
IC50 [13]: 0.086 µM | IC50 [14]: 0.109 µM

CC[C@H](C)[C@H](NC(=O)[C@H](Cc1ccccc1)NC(C)=O)C(=O)N[C@H](C(=O)NCC(=O)N[C@@H](Cc1c[nH]cn1)C(=O)N[C@@H](C)C(=O)N[C@@H](Cc1c[nH]c2ccccc12)C(=O)N[C@H](C(=O)N[C@@H](CCCNC(=N)N)C(=O)N[C@@H](Cc1ccccc1)C(=O)N[C@@H](CC(C)C)C(=O)N1CCC[C@H]1C(=O)N[C@@H](CS)C(=O)NCC(N)=O)C(C)C)[C@@H](C)O (Ac-FITGHAWVRFLPCG-NH2)
IC50 [15]: 0.689 µM | IC50 [16]: 0.085 µM

CC[C@H](C)[C@H](NC(=O)[C@H](Cc1ccccc1)NC(C)=O)C(=O)N[C@H](C(=O)NCC(=O)N[C@@H](Cc1c[nH]cn1)C(=O)N[C@@H](Cc1ccc(O)cc1)C(=O)N[C@@H](C)C(=O)N[C@H](C(=O)N[C@@H](CCCNC(=N)N)C(=O)N[C@@H](Cc1ccccc1)C(=O)N[C@@H](CC(C)C)C(=O)N1CCC[C@H]1C(=O)N[C@@H](CS)C(=O)NCC(N)=O)C(C)C)[C@@H](C)O (Ac-FITGHYAVRFLPCG-NH2)
IC50 [17]: 0.25 µM | IC50 [18]: 0.811 µM

CC[C@H](C)[C@H](NC(=O)[C@H](Cc1ccccc1)NC(C)=O)C(=O)N[C@H](C(=O)NCC(=O)N[C@@H](Cc1c[nH]cn1)C(=O)N[C@@H](Cc1ccc(O)cc1)C(=O)N[C@@H](Cc1c[nH]c2ccccc12)C(=O)N[C@@H](C)C(=O)N[C@@H](CCCNC(=N)N)C(=O)N[C@@H](Cc1ccccc1)C(=O)N[C@@H](CC(C)C)C(=O)N1CCC[C@H]1C(=O)N[C@@H](CS)C(=O)NCC(N)=O)[C@@H](C)O (Ac-FITGHYWARFLPCG-NH2)
IC50 [19]: 0.096 µM | IC50 [20]: < 0.076 µM

CC[C@H](C)[C@H](NC(=O)[C@H](Cc1ccccc1)NC(C)=O)C(=O)N[C@H](C(=O)NCC(=O)N[C@@H](Cc1c[nH]cn1)C(=O)N[C@@H](Cc1ccc(O)cc1)C(=O)N[C@@H](Cc1c[nH]c2ccccc12)C(=O)N[C@H](C(=O)N[C@@H](C)C(=O)N[C@@H](Cc1ccccc1)C(=O)N[C@@H](CC(C)C)C(=O)N1CCC[C@H]1C(=O)N[C@@H](CS)C(=O)NCC(N)=O)C(C)C)[C@@H](C)O (Ac-FITGHYWVAFLPCG-NH2)
IC50 [21]: < 0.076 µM | IC50 [22]: 0.092 µM

CC[C@H](C)[C@H](NC(=O)[C@H](Cc1ccccc1)NC(C)=O)C(=O)N[C@H](C(=O)NCC(=O)N[C@@H](Cc1c[nH]cn1)C(=O)N[C@@H](Cc1ccc(O)cc1)C(=O)N[C@@H](Cc1c[nH]c2ccccc12)C(=O)N[C@H](C(=O)N[C@@H](CCCNC(=N)N)C(=O)N[C@@H](Cc1ccccc1)C(=O)N[C@@H](CC(C)C)C(=O)N1CCC[C@H]1C(=O)N[C@@H](CS)C(=O)NCC(N)=O)C(C)C)[C@@H](C)O (Ac-FITGHYWVRFLPCG-NH2)
IC50 [2]: < 0.076 µM | IC50 [4]: < 0.076 µM

CC[C@H](C)[C@H](NC(C)=O)C(=O)N[C@H](C(=O)NCC(=O)N[C@@H](Cc1c[nH]cn1)C(=O)N[C@@H](Cc1ccc(O)cc1)C(=O)N[C@@H](Cc1c[nH]c2ccccc12)C(N)=O)[C@@H](C)O (Ac-ITGHYW-NH2)
IC50 [2]: > 99 µM | inhibition [5]: 2% | inhibition [6]: 21% | IC50 [4]: > 99 µM

Cc1cccc(C(c2cn(C3CCCC3)nc2-c2ccccc2)n2cccc(N3C[C@H](C(=O)NC45CCC(CC4)NC5=O)N(C)C3=O)c2=O)c1 (mixture of isomers)
IC50 [2]: 27 µM | IC50 [4]: 15 µM

Cc1ccc(C(c2cn(C3CCCC3)nc2-c2ccccc2)n2cccc(N3C[C@H](C(=O)NC45CCC(CC4)NC5=O)N(C)C3=O)c2=O)cc1 (mixture of isomers)
IC50 [2]: 5 µM | IC50 [4]: 13 µM

Cc1ccccc1C(c1cn(C2CCCC2)nc1-c1ccccc1)n1cccc(N2C[C@H](C(=O)NC34CCC(CC3)NC4=O)N(C)C2=O)c1=O (mixture of isomers)
IC50 [2]: 24 µM | IC50 [4]: 30 µM
